# Results from article PMC5218480 (PLoS ONE, 2017).
# System: MV-4-11 cells
# Experiment: Gene expression microarray analysis (Affymetrix PrimeView) and GSEA
# Type: cell-based, human
# Design: RFU PODN (11730768_x_at) / Fold change /veh PODN (11730768_x_at) / RFU LINC00158 (11744669_a_at) / Fold change /veh LINC00158 (11744669_a_at) / RFU DUSP10 (11751237_a_at) / Fold change /veh DUSP10 (11751237_a_at) / RFU ID3 (11757404_x_at) / Fold change /veh ID3 (11757404_x_at) / RFU PLEKHG5 (11737974_s_at) / Fold change /veh PLEKHG5 (11737974_s_at) / RFU LRRC4B (11730491_at) / Fold change /veh LRRC4B (11730491_at) / RFU GIMAP4 (11747438_a_at) / Fold change /veh GIMAP4 (11747438_a_at) / RFU KRT8 (11758183_x_at) / Fold change /veh KRT8 (11758183_x_at) / RFU CNN1 (11734310_a_at) / Fold change /veh CNN1 (11734310_a_at) / RFU VPS37D (11726825_at) / Fold change /veh VPS37D (11726825_at) / RFU C10orf10 (11716522_x_at) / Fold change /veh C10orf10 (11716522_x_at) / RFU KIR2DL2 /// KIR2DL4 /// KIR2DL5A /// KIR2DL5B /// KIR2DS1 /// KIR2DS2 /// KIR2DS3 /// KIR2DS4 /// KIR3DL3 /// KIR3DL3 /// KIR3DS1 (11738374_at) / Fold change /veh KIR2DL2 /// KIR2DL4 /// KIR2DL5A /// KIR2DL5B /// KIR2DS1 /// KIR2DS2 /// KIR2DS3 /// KIR2DS4 /// KIR3DL3 /// KIR3DL3 /// KIR3DS1 (11738374_at) / RFU C1QL1 (11718748_at) / Fold change /veh C1QL1 (11718748_at) / RFU TMPRSS4 (11747572_a_at) / Fold change /veh TMPRSS4 (11747572_a_at) / RFU HAMP (11756126_x_at) / Fold change /veh HAMP (11756126_x_at) / RFU RNFT2 (11725882_a_at) / Fold change /veh RNFT2 (11725882_a_at) / RFU NR4A2 (11747474_a_at) / Fold change /veh NR4A2 (11747474_a_at) / RFU ABCC12 (11746883_a_at) / Fold change /veh ABCC12 (11746883_a_at) / RFU TMEM136 (11760407_x_at) / Fold change /veh TMEM136 (11760407_x_at) / RFU CLDN22 /// WWC2 (11732394_at) / Fold change /veh CLDN22 /// WWC2 (11732394_at) / RFU HLA-DPB1 (11760878_x_at) / Fold change /veh HLA-DPB1 (11760878_x_at) / RFU SPINT1 (11716480_a_at) / Fold change /veh SPINT1 (11716480_a_at) / RFU GAP43 (11754022_s_at) / Fold change /veh GAP43 (11754022_s_at) / RFU A4GNT (11735810_at) / Fold change /veh A4GNT (11735810_at) / RFU PRB3 (11715151_x_at) / Fold change /veh PRB3 (11715151_x_at) / RFU TUBB4B (11761932_at) / Fold change /veh TUBB4B (11761932_at) / RFU CAPN14 (11732068_a_at) / Fold change /veh CAPN14 (11732068_a_at) / RFU TMCC2 (11721928_a_at) / Fold change /veh TMCC2 (11721928_a_at) / RFU IRGQ (11745062_a_at) / Fold change /veh IRGQ (11745062_a_at) / RFU FAM174B (11720279_a_at) / Fold change /veh FAM174B (11720279_a_at) / RFU TMPRSS4 (11748680_a_at) / Fold change /veh TMPRSS4 (11748680_a_at) / RFU FAM212B (11763350_a_at) / Fold change /veh FAM212B (11763350_a_at) / RFU PLEKHG5 (11743358_a_at) / Fold change /veh PLEKHG5 (11743358_a_at) / RFU ZSCAN30 (11745921_a_at) / Fold change /veh ZSCAN30 (11745921_a_at) / RFU CMKLR1 (11741424_a_at) / Fold change /veh CMKLR1 (11741424_a_at) / RFU LOC101060620 /// MAPK8IP1 (11723275_at) / Fold change /veh LOC101060620 /// MAPK8IP1 (11723275_at) / RFU SPTSSB (11747773_x_at) / Fold change /veh SPTSSB (11747773_x_at) / RFU PRSS12 (11739890_at) / Fold change /veh PRSS12 (11739890_at) / RFU BIN1 (11741810_x_at) / Fold change /veh BIN1 (11741810_x_at) / RFU WNT11 (11732464_a_at) / Fold change /veh WNT11 (11732464_a_at) / RFU C10orf10 (11716521_a_at) / Fold change /veh C10orf10 (11716521_a_at) / RFU C5orf56 (11738089_at) / Fold change /veh C5orf56 (11738089_at) / RFU CYB561 (11721691_x_at) / Fold change /veh CYB561 (11721691_x_at) / RFU ANKRD19P (11752326_a_at) / Fold change /veh ANKRD19P (11752326_a_at) / RFU OR2T12 /// OR2T33 /// OR2T8 (11738714_s_at) / Fold change /veh OR2T12 /// OR2T33 /// OR2T8 (11738714_s_at) / RFU VCAN (11748164_a_at) / Fold change /veh VCAN (11748164_a_at) / RFU JSRP1 (11732532_at) / Fold change /veh JSRP1 (11732532_at) / RFU KRTAP10-11 (11738290_x_at) / Fold change /veh KRTAP10-11 (11738290_x_at) / RFU MYO3A (11730013_a_at) / Fold change /veh MYO3A (11730013_a_at) / RFU EBF3 (11725865_a_at) / Fold change /veh EBF3 (11725865_a_at) / RFU CAMK2N1 (11719241_x_at) / Fold change /veh CAMK2N1 (11719241_x_at) / RFU C5orf56 (11738088_a_at) / Fold change /veh C5orf56 (11738088_a_at) / RFU OLFML3 (11715873_a_at) / Fold change /veh OLFML3 (11715873_a_at) / RFU LOC100653217 /// NTM (11731650_a_at) / Fold change /veh LOC100653217 /// NTM (11731650_a_at) / RFU MAPK11 (11762145_a_at) / Fold change /veh MAPK11 (11762145_a_at) / RFU FIZ1 (11724087_x_at) / Fold change /veh FIZ1 (11724087_x_at) / RFU OASL (11726364_x_at) / Fold change /veh OASL (11726364_x_at) / RFU SOX15 (11748057_x_at) / Fold change /veh SOX15 (11748057_x_at) / RFU CD79A (11719716_a_at) / Fold change /veh CD79A (11719716_a_at) / RFU HIST1H1D (11736915_at) / Fold change /veh HIST1H1D (11736915_at) / RFU CASKIN2 (11723855_a_at) / Fold change /veh CASKIN2 (11723855_a_at) / RFU LOC730098 (11760151_x_at) / Fold change /veh LOC730098 (11760151_x_at) / RFU OR4N2 (11742367_at) / Fold change /veh OR4N2 (11742367_at) / RFU PRRT2 (11749266_a_at) / Fold change /veh PRRT2 (11749266_a_at) / RFU SNX32 (11753110_a_at) / Fold change /veh SNX32 (11753110_a_at) / RFU CDHR5 (11726645_a_at) / Fold change /veh CDHR5 (11726645_a_at) / RFU RCAN1 (11760418_a_at) / Fold change /veh RCAN1 (11760418_a_at) / RFU FAM167A (11723789_a_at) / Fold change /veh FAM167A (11723789_a_at) / RFU FAM26E (11764081_at) / Fold change /veh FAM26E (11764081_at) / RFU ISYNA1 (11749810_s_at) / Fold change /veh ISYNA1 (11749810_s_at) / RFU ACY1 (11761880_at) / Fold change /veh ACY1 (11761880_at) / RFU 11764098_at / Fold change /veh 11764098_at / RFU SAMD14 (11745864_x_at) / Fold change /veh SAMD14 (11745864_x_at) / RFU NPB (11741838_a_at) / Fold change /veh NPB (11741838_a_at) / RFU TMPRSS6 (11731388_a_at) / Fold change /veh TMPRSS6 (11731388_a_at) / RFU KRTAP10-2 (11738614_at) / Fold change /veh KRTAP10-2 (11738614_at) / RFU ARHGAP8 /// PRR5-ARHGAP8 (11727945_x_at) / Fold change /veh ARHGAP8 /// PRR5-ARHGAP8 (11727945_x_at) / RFU KRTAP5-7 /// NADSYN1 (11734609_at) / Fold change /veh KRTAP5-7 /// NADSYN1 (11734609_at) / RFU RASL12 (11751679_a_at) / Fold change /veh RASL12 (11751679_a_at) / RFU CDKN2B (11736163_a_at) / Fold change /veh CDKN2B (11736163_a_at) / RFU PRF1 (11729649_at) / Fold change /veh PRF1 (11729649_at) / RFU, ZNF638 /// ZNF638-IT1 / Fold change vs veh, ZNF638 /// ZNF638-IT1 / RFU, PANK3 / Fold change vs veh, PANK3 / RFU, SH3YL1 / Fold change vs veh, SH3YL1 / RFU, ZEB2 / Fold change vs veh, ZEB2 / RFU, NRIP1 / Fold change vs veh, NRIP1 / RFU, PTTG1IP / Fold change vs veh, PTTG1IP / RFU, CAPN2 / Fold change vs veh, CAPN2 / RFU, MED14 / Fold change vs veh, MED14 / RFU, SNORA58 / Fold change vs veh, SNORA58 / RFU, C1orf63 / Fold change vs veh, C1orf63 / RFU, LRRFIP1 / Fold change vs veh, LRRFIP1 / RFU, NDUFAF7 / Fold change vs veh, NDUFAF7 / RFU, SLC12A2 / Fold change vs veh, SLC12A2 / RFU, IBTK / Fold change vs veh, IBTK / RFU, ESF1 / Fold change vs veh, ESF1 / Fold change vs veh, TMEM50B / RFU, TAOK1 / Fold change vs veh, TAOK1 / RFU, ACBD3 / Fold change vs veh, ACBD3 / RFU, TMA16 / Fold change vs veh, TMA16 / RFU, RWDD3 / Fold change vs veh, RWDD3 / RFU, BCAT1 / Fold change vs veh, BCAT1 / RFU, EDEM3 / Fold change vs veh, EDEM3 / RFU, TMEM33 / Fold change vs veh, TMEM33 / RFU, WDR75 / Fold change vs veh, WDR75 / RFU, AHCTF1 / Fold change vs veh, AHCTF1 / RFU, TFRC / Fold change vs veh, TFRC / RFU, ZDHHC17 / Fold change vs veh, ZDHHC17 / RFU, NOM1 / Fold change vs veh, NOM1 / RFU, ARL8B / Fold change vs veh, ARL8B / RFU, ZBTB11 / Fold change vs veh, ZBTB11 / RFU, TAMM41 / Fold change vs veh, TAMM41 / RFU, KIAA1704 /// LOC100996395 / Fold change vs veh, KIAA1704 /// LOC100996395 / RFU, ING1 / Fold change vs veh, ING1 / RFU, TRMT61B / Fold change vs veh, TRMT61B / RFU, FUBP3 / Fold change vs veh, FUBP3 / RFU, TP53 / Fold change vs veh, TP53 / RFU, TNKS2 / Fold change vs veh, TNKS2 / RFU, ZFP14 / Fold change vs veh, ZFP14 / RFU, ACTR2 / Fold change vs veh, ACTR2 / RFU, PPP3R1 / Fold change vs veh, PPP3R1 / RFU, PIK3R1 / Fold change vs veh, PIK3R1 / RFU, HNRNPA1 / Fold change vs veh, HNRNPA1 / RFU, RNF170 / Fold change vs veh, RNF170 / RFU, ZNF28 / Fold change vs veh, ZNF28 / RFU, RNGTT / Fold change vs veh, RNGTT / RFU, OGT / Fold change vs veh, OGT / RFU, BRD1 / Fold change vs veh, BRD1 / RFU, MARS / Fold change vs veh, MARS / RFU, ZNF655 / Fold change vs veh, ZNF655 / RFU, FAHD1 / Fold change vs veh, FAHD1 / RFU, BDP1 / Fold change vs veh, BDP1 / RFU, LRRCC1 / Fold change vs veh, LRRCC1 / RFU, ARID1A / Fold change vs veh, ARID1A / RFU, ZNF146 / Fold change vs veh, ZNF146 / RFU, ZNF330 / Fold change vs veh, ZNF330 / RFU, GPN3 / Fold change vs veh, GPN3 / RFU, C9orf123 / Fold change vs veh, C9orf123 / RFU, N4BP2L2 / Fold change vs veh, N4BP2L2 / RFU, ARFIP1 / Fold change vs veh, ARFIP1 / RFU, FAM179B / Fold change vs veh, FAM179B / RFU, BCL10 / Fold change vs veh, BCL10 / RFU, UHRF1BP1L / Fold change vs veh, UHRF1BP1L / RFU, BET1 / Fold change vs veh, BET1 / RFU, CNOT2 / Fold change vs veh, CNOT2 / RFU, ZNF268 / Fold change vs veh, ZNF268 / Fold change vs veh, ZNF507 / RFU, DGCR2 / Fold change vs veh, DGCR2 / RFU, WDSUB1 / Fold change vs veh, WDSUB1 / Fold change vs veh, HSP90B1 /// MIR3652 / RFU, ADSS / Fold change vs veh, ADSS / RFU, GK / Fold change vs veh, GK / RFU, ZNF148 / Fold change vs veh, ZNF148 / RFU, TAF9 / Fold change vs veh, TAF9 / RFU, SLC1A5 / Fold change vs veh, SLC1A5 / RFU, SLMO2 / Fold change vs veh, SLMO2 / RFU, ABCC4 / Fold change vs veh, ABCC4 / RFU, LOC101060439 /// RAP1B / Fold change vs veh, LOC101060439 /// RAP1B / RFU, RFX7 / Fold change vs veh, RFX7 / RFU, GTPBP10 / Fold change vs veh, GTPBP10 / RFU, CNEP1R1 / Fold change vs veh, CNEP1R1 / RFU, BIVM-ERCC5 /// ERCC5 / Fold change vs veh, BIVM-ERCC5 /// ERCC5 / RFU, ILF3 / Fold change vs veh, ILF3 / RFU 11762660_at / Fold change /veh 11762660_at / RFU VCAN (11757783_s_at) / Fold change /veh VCAN (11757783_s_at) / RFU DDX43 (11728927_at) / Fold change /veh DDX43 (11728927_at) / RFU KRT8 (11758188_x_at) / Fold change /veh KRT8 (11758188_x_at) / RFU NKD1 (11759106_at) / Fold change /veh NKD1 (11759106_at) / RFU SRD5A1 (11742802_a_at) / Fold change /veh SRD5A1 (11742802_a_at) / RFU TPSAB1 /// TPSB2 (11721975_s_at) / Fold change /veh TPSAB1 /// TPSB2 (11721975_s_at) / RFU GSTM3 (11746129_a_at) / Fold change /veh GSTM3 (11746129_a_at) / RFU IL23R (11737362_x_at) / Fold change /veh IL23R (11737362_x_at) / RFU TMEM51 (11727254_a_at) / Fold change /veh TMEM51 (11727254_a_at) / RFU PIWIL2 (11732686_x_at) / Fold change /veh PIWIL2 (11732686_x_at) / RFU ORM1 (11744905_x_at) / Fold change /veh ORM1 (11744905_x_at) / RFU CCDC152 (11743942_at) / Fold change /veh CCDC152 (11743942_at) / RFU ECM1 (11717891_a_at) / Fold change /veh ECM1 (11717891_a_at) / RFU IL23R (11748794_a_at) / Fold change /veh IL23R (11748794_a_at) / RFU TNFAIP8L3 (11732012_x_at) / Fold change /veh TNFAIP8L3 (11732012_x_at) / RFU MBOAT4 (11741988_at) / Fold change /veh MBOAT4 (11741988_at) / RFU 11764193_at / Fold change /veh 11764193_at / RFU TMEM53 (11763286_at) / Fold change /veh TMEM53 (11763286_at) / RFU MAGEB2 (11727129_at) / Fold change /veh MAGEB2 (11727129_at) / RFU TMEM200A (11744735_a_at) / Fold change /veh TMEM200A (11744735_a_at) / RFU CCDC152 (11751479_a_at) / Fold change /veh CCDC152 (11751479_a_at) / RFU FAM211A (11726209_a_at) / Fold change /veh FAM211A (11726209_a_at) / RFU RGS16 (11746705_a_at) / Fold change /veh RGS16 (11746705_a_at) / RFU VCAN (11755009_s_at) / Fold change /veh VCAN (11755009_s_at) / RFU RHOB (11743442_s_at) / Fold change /veh RHOB (11743442_s_at) / RFU RGS16 (11720943_a_at) / Fold change /veh RGS16 (11720943_a_at) / RFU RGS16 (11720944_at) / Fold change /veh RGS16 (11720944_at) / RFU, VPS4B / Fold change vs veh, VPS4B / RFU, CREB1 / Fold change vs veh, CREB1 / RFU, DNAJC13 / Fold change vs veh, DNAJC13 / RFU, GNAQ / Fold change vs veh, GNAQ / RFU, CDK5R1 / Fold change vs veh, CDK5R1 / RFU, ZRANB3 / Fold change vs veh, ZRANB3 / RFU, CUL4A / Fold change vs veh, CUL4A / RFU, CCNY / Fold change vs veh, CCNY / RFU, UFL1 / Fold change vs veh, UFL1 / RFU, COG3 / Fold change vs veh, COG3 / RFU, DIAPH2 / Fold change vs veh, DIAPH2 / RFU, SKA2 / Fold change vs veh, SKA2 / RFU, AFF3 / Fold change vs veh, AFF3 / RFU, LMF1 / Fold change vs veh, LMF1 / RFU, IPO11 / Fold change vs veh, IPO11 / RFU, DFFB / Fold change vs veh, DFFB / RFU, FOXP1 / Fold change vs veh, FOXP1 / RFU, CARD8 / Fold change vs veh, CARD8 / RFU, STRN3 / Fold change vs veh, STRN3 / RFU, ADK / Fold change vs veh, ADK / RFU, RASSF2 / Fold change vs veh, RASSF2 / RFU, WIPF1 / Fold change vs veh, WIPF1 / RFU, LARP1B / Fold change vs veh, LARP1B / RFU, RASA1 / Fold change vs veh, RASA1 / RFU, RB1 / Fold change vs veh, RB1 / RFU, PPFIA1 / Fold change vs veh, PPFIA1 / RFU, MAT2A / Fold change vs veh, MAT2A / RFU, CCT5 / Fold change vs veh, CCT5 / RFU, WDR92 / Fold change vs veh, WDR92 / RFU, CUX1 / Fold change vs veh, CUX1 / RFU, TTC7A / Fold change vs veh, TTC7A / RFU, TMEM135 / Fold change vs veh, TMEM135 / RFU, DEPTOR / Fold change vs veh, DEPTOR / RFU, CPM / Fold change vs veh, CPM / RFU, DNAJB6 / Fold change vs veh, DNAJB6 / RFU, CACNA2D3 / Fold change vs veh, CACNA2D3 / RFU, DTX4 / Fold change vs veh, DTX4 / RFU, TFCP2 / Fold change vs veh, TFCP2 / RFU, GMCL1 /// GMCL1P1 / Fold change vs veh, GMCL1 /// GMCL1P1 / RFU, AEBP2 / Fold change vs veh, AEBP2 / RFU, SNHG1 /// SNORD22 /// SNORD25 /// SNORD26 /// SNORD27 /// SNORD28 /// SNORD29 /// SNORD31 / Fold change vs veh, SNHG1 /// SNORD22 /// SNORD25 /// SNORD26 /// SNORD27 /// SNORD28 /// SNORD29 /// SNORD31 / Fold change (Aza/veh), C12orf56 (ProbeSet 11735607_a_at) / Fold change (ACY-1035/veh), C12orf56 (ProbeSet 11735607_a_at) / Fold change (Aza/veh), FGFR1OP (ProbeSet 11751329_s_at) / Fold change (ACY-1035/veh), FGFR1OP (ProbeSet 11751329_s_at) / Fold change (Aza/veh), VPS36 (ProbeSet 11739960_a_at) / Fold change (ACY-1035/veh), VPS36 (ProbeSet 11739960_a_at) / RFU SYPL1 (11715823_x_at) / Fold change /veh SYPL1 (11715823_x_at) / RFU IGFBP7 (11715501_s_at) / Fold change /veh IGFBP7 (11715501_s_at) / RFU REEP3 (11722064_at) / Fold change /veh REEP3 (11722064_at) / RFU IGLL1 (11728026_x_at) / Fold change /veh IGLL1 (11728026_x_at): dose or concentration left out as unconfirmed
# Conditions: MV-4-11 cells, 48 hours
smiles,measurement,value
Nc1ncn([C@@H]2O[C@H](CO)[C@@H](O)[C@H]2O)c(=O)n1 [azacitidine],Fold change /veh NKD1 (11759106_at),1.33
